Experimental data reported in patent US6642227B2, “Inhibitors of c-Jun N-terminal kinases (JNK) and other protein kinases” (Vertex Pharmaceuticals Incorporated, priority 2001, dated 2003).

What was measured:
human Src kinase = molecular target: T1, human Src kinase (Homo sapiens, UniProt P12931); assay: Src inhibition assay (A: radioactivity-based or B: spectrophotometric coupled-enzyme assay); format: biochemical; details: assay A or B not specified; inhibitor concentration not given
T1 construct: full length recombinant human Src kinase; purchased Upstate Biotechnology 14-117; host or cells: baculovirus-infected cells
Procedure: The compounds were evaluated as inhibitors of human Src kinase using either a radioactivity-based assay or spectrophotometric assay.
The compounds were assayed as inhibitors of full length recombinant human Src kinase (from Upstate Biotechnology, cat. no. 14-117) expressed and purified from baculo viral cells. Src kinase activity was monitored by following the incorporation of ^33p from ATP into the tyrosine of a random poly Glu-Tyr polymer substrate of composition, Glu:Tyr=4:1 (Sigma, cat. no. P-0275). The following were the final concentrations of the assay components: 0.05 M HEPES, pH 7.6, 10 mM MgCl2, 2 mM DTT, 0.25 mg/ml BSA, 10 μM ATP (1-2 uCi ^33P-ATP per reaction), 5 mg/ml poly Glu-Tyr, and 1-2 units of recombinant human Src kinase. In a typical assay, all the reaction components with the exception of ATP were pre-mixed and aliquoted into assay plate wells.
Inhibitors dissolved in DMSO were added to the wells to give a final DMSO concentration of 2.5%. The assay plate was incubated at 30° C. for 10 min before initiating the reaction with ^33P-ATP. After 20 min of reaction, the reactions were quenched with 150 μl of 10% trichloroacetic acid (TCA) containing 20 mM Na3PO4. The quenched samples were then transferred to a 96-well filter plate (Whatman, UNI-Filter GF/F Glass Fiber Filter, cat no. 7700-3310) installed on a filter plate vacuum manifold. Filter plates were washed four times with 10% TCA containing 20 mM Na3PO4 and then 4 times with methanol. 200 μl of scintillation fluid was then added to each well. The plates were sealed and the amount of radioactivity associated with the filters was quantified on a TopCount scintillation counter. The radioactivity incorporated was plotted as a function of the inhibitor concentration. The data was fitted to a competitive inhibition kinetics model to get the Ki for the compound.
The ADP produced from ATP by the human recombinant Src kinase-catalyzed phosphorylation of poly Glu-Tyr substrate was quanitified using a coupled enzyme assay (Fox et al (1998) Protein Sci 7, 2249). In this assay one molecule of NADH is oxidised to NAD for every molecule of ADP produced in the kinase reaction. The disappearance of NADH can be conveniently followed at 340 nm.
The following were the final concentrations of the assay components: 0.025 M HEPES, pH 7.6, 10 mM MgCl2, 2 mM DTT, 0.25 mg/ml poly Glu-Tyr, and 25 nM of recombinant human Src kinase. Final concentrations of the components of the coupled enzyme system were 2.5 mM phosphoenolpyruvate, 200 μM NADH, 30 μg/ml pyruvate kinase and 10 μg/ml lactate dehydrogenase.
In a typical assay, all the reaction components with the exception of ATP were pre-mixed and aliquoted into assay plate wells. Inhibitors dissolved in DMSO were added to the wells to give a final DMSO concentration of 2.5%. The assay plate was incubated at 30 C. for 10 min before initiating the reaction with 100 μM ATP. The absorbance change at 340 nm with time, the rate of the reaction, was monitored on a molecular devices plate reader. The data of rate as a function of the inhibitor concentration was fitted to compettive inhibition kinetics model to get the Ki for the compound.

human Lck kinase = human Lck kinase (UniProt P06239); assay: Lck inhibition assay (A: radioactivity-based or B: spectrophotometric coupled-enzyme assay); format: biochemical; details: read-out: Lck Activity (Ki rating)
In short: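 Two formats. Radiometric: full-length bovine thymus Lck, poly(Glu:Tyr 4:1) 5 mg/ml, 10 μM ATP with ^33P-ATP, HEPES pH 7.6, 10 min preincubation then 20 min at 30 °C, TCA-quenched filter counting. Coupled: 50 nM recombinant human Lck, 150 μM ATP, NADH loss at 340 nm. Ki from competitive-inhibition fit.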

T1 sequence (P12931 whole entry): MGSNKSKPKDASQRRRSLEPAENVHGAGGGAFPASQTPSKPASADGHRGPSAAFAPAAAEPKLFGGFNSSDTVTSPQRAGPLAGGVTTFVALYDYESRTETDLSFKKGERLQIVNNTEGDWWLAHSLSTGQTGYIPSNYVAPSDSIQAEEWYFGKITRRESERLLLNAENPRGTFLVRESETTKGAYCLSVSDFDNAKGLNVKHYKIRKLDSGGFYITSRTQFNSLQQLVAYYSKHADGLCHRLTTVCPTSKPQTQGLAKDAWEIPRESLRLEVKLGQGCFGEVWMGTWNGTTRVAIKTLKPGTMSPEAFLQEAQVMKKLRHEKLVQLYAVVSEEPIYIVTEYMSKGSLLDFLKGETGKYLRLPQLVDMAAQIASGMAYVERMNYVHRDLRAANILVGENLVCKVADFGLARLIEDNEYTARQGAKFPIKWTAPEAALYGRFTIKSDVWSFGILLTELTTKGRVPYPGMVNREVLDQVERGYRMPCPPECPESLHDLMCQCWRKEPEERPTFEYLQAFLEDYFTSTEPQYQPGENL

Row | Ki (human Lck kinase) [nM] | Compound | Src Activity (percent inhibition class D-F) (human Src kinase)
1 | < 100 | CCOc1sc(-c2ccnc(Nc3ccccc3)n2)c(-c2ccc(C)cc2)c1C#N [IIa-15, 2-Ethoxy-5-(2-phenylamino-pyrimidin-4-yl)-4-p-tolyl-thiophene-3-carbonitrile] | F (compounds having an activity designated as “F” provided a provided a percent inhibition of between 67% and 100%)
2 | 100 to 1000 | CCOc1sc(-c2ccnc(Nc3ccccc3)n2)c(-c2ccc(Cl)cc2)c1C#N [IIa-11, 2-Ethoxy-5-(2-phenylamino-pyrimidin-4-yl)-4-(4-chloro-phenyl)-thiophene-3-carbonitrile] | F (compounds having an activity designated as “F” provided a provided a percent inhibition of between 67% and 100%)
3 | < 100 | CSc1sc(-c2ccnc(Nc3ccccc3)n2)c(-c2ccc(C)cc2)c1C#N [IIa-14, 2-Methylsulfanyl-5-(2-phenylamino-pyrimidin-4-yl)-4-p-tolyl-thiophene-3-carbonitrile] | F (compounds having an activity designated as “F” provided a provided a percent inhibition of between 67% and 100%)
4 | < 100 | CSc1sc(-c2ccnc(Nc3ccccc3)n2)c(-c2ccc(Cl)cc2)c1C#N [IIa-10, 2-Methylsulfanyl-5-(2-phenylamino-pyrimidin-4-yl)-4-(4-chloro-phenyl)-thiophene-3-carbonitrile] | F (compounds having an activity designated as “F” provided a provided a percent inhibition of between 67% and 100%)
